Test results from ChEMBL document CHEMBL1201862, “PubChem BioAssay data set” (2004).
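All cell lines were grown in 96-well plates and treated with compound for 48 hours. GI50 is the concentration that inhibits growth by half.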 Activity calls are given as the source filed them. No stated cut-off is given here; in the data, active = GI50 up to about 1.1 µM and inactive = higher.

How the values were obtained:
Experiment in all cases: NCI anticancer screen, dose series, 48 h
[1] = test system: M14
[2] = test system: DMS-114
[3] = test system: MOLT-4
[4] = test system: NCI-H226
[5] = test system: SK-MEL-2
[6] = test system: SW-620
[7] = test system: SK-MEL-28
[8] = test system: COLO 205
[9] = test system: Malme-3M
[10] = test system: A498
[11] = test system: OVCAR-8
[12] = test system: SNB-75
[13] = test system: A549
[14] = test system: CCRF-CEM
[15] = test system: UO-31
[16] = test system: SF-268
[17] = test system: HT-29

N#C/C(c1nc2ccccc2[nH]1)=c1\s/c(=C/c2ccccc2)c(=O)n1-c1ccccc1
GI50 [1]: > 100 µM (inactive) | GI50 [2]: > 100 µM (inactive) | GI50 [3]: 9.89 µM (inactive) | GI50 [4]: > 100 µM (inactive) | GI50 [5]: > 100 µM (inactive) | GI50 [6]: > 100 µM (inactive) | GI50 [7]: > 100 µM (inactive) | GI50 [8]: > 100 µM (inactive) | GI50 [9]: > 100 µM (inactive) | GI50 [10]: 65.5 µM (inactive) | GI50 [11]: > 100 µM (inactive) | GI50 [12]: > 100 µM (inactive) | GI50 [13]: > 100 µM (inactive) | GI50 [14]: 98.9 µM (inactive) | GI50 [15]: > 100 µM (inactive) | GI50 [16]: > 100 µM (inactive)

CCC(C)(C)NS(=O)(=O)c1ccccc1
GI50 [1]: > 100 µM (inactive) | GI50 [2]: > 100 µM (inactive) | GI50 [3]: > 100 µM (inactive) | GI50 [17]: > 100 µM (inactive) | GI50 [4]: > 10 µM (inactive) | GI50 [5]: > 100 µM (inactive) | GI50 [6]: > 100 µM (inactive) | GI50 [7]: > 100 µM (inactive) | GI50 [9]: > 100 µM (inactive) | GI50 [10]: > 100 µM (inactive) | GI50 [11]: > 100 µM (inactive) | GI50 [12]: > 100 µM (inactive) | GI50 [13]: > 100 µM (inactive) | GI50 [14]: > 100 µM (inactive) | GI50 [15]: > 100 µM (inactive)

N#C/N=C(\NCCc1c[nH]c2ccccc12)NCc1ccccc1
GI50 [1]: 51.1 µM (inactive) | GI50 [2]: 32.9 µM (inactive) | GI50 [3]: 34.9 µM (inactive) | GI50 [17]: 37.8 µM (inactive) | GI50 [4]: 34.4 µM (inactive) | GI50 [6]: > 100 µM (inactive) | GI50 [7]: 80.7 µM (inactive) | GI50 [8]: 61 µM (inactive) | GI50 [11]: > 100 µM (inactive) | GI50 [12]: 43.8 µM (inactive) | GI50 [13]: 60.5 µM (inactive) | GI50 [14]: 29.9 µM (inactive) | GI50 [15]: 20.5 µM (inactive) | GI50 [16]: > 100 µM (inactive)

CCCCCCCCCCNC(=S)OCCCC
GI50 [1]: 23.6 µM (inactive) | GI50 [2]: 22.9 µM (inactive) | GI50 [3]: 14.7 µM (inactive) | GI50 [17]: 19.5 µM (inactive) | GI50 [5]: 12.8 µM (inactive) | GI50 [6]: 19.2 µM (inactive) | GI50 [7]: 25.8 µM (inactive) | GI50 [9]: 27.7 µM (inactive) | GI50 [10]: 25.6 µM (inactive) | GI50 [11]: 33.3 µM (inactive) | GI50 [12]: 36.5 µM (inactive) | GI50 [13]: 26 µM (inactive) | GI50 [14]: 17.1 µM (inactive) | GI50 [15]: 23.5 µM (inactive) | GI50 [16]: 22.8 µM (inactive)

CCCC(OCC)(OCC)OCC
GI50 [1]: > 100 µM (inactive) | GI50 [2]: 69 µM (inactive) | GI50 [3]: > 100 µM (inactive) | GI50 [17]: > 100 µM (inactive) | GI50 [4]: > 100 µM (inactive) | GI50 [5]: > 100 µM (inactive) | GI50 [7]: > 100 µM (inactive) | GI50 [8]: > 100 µM (inactive) | GI50 [9]: > 100 µM (inactive) | GI50 [10]: > 100 µM (inactive) | GI50 [11]: > 100 µM (inactive) | GI50 [12]: > 100 µM (inactive) | GI50 [13]: > 100 µM (inactive) | GI50 [14]: > 100 µM (inactive) | GI50 [15]: > 100 µM (inactive) | GI50 [16]: > 100 µM (inactive)

Cc1cc2nc3c(C(OC4OC(CO)C(O)C(O)C4O)C(O)CO)nn(-c4ccccc4)c3nc2cc1C (configuration not stated)
GI50 [1]: > 100 µM (inactive) | GI50 [2]: > 100 µM (inactive) | GI50 [3]: > 100 µM (inactive) | GI50 [17]: > 100 µM (inactive) | GI50 [7]: > 100 µM (inactive) | GI50 [9]: > 100 µM (inactive) | GI50 [10]: > 100 µM (inactive) | GI50 [11]: > 100 µM (inactive) | GI50 [12]: 64 µM (inactive) | GI50 [14]: > 100 µM (inactive) | GI50 [15]: > 100 µM (inactive) | GI50 [16]: > 100 µM (inactive)

O=c1c(O)cccn1C1OC(CO)C(O)C1O (configuration not stated)
GI50 [1]: > 100 µM (inactive) | GI50 [2]: > 100 µM (inactive) | GI50 [17]: > 100 µM (inactive) | GI50 [4]: > 100 µM (inactive) | GI50 [5]: > 100 µM (inactive) | GI50 [7]: > 100 µM (inactive) | GI50 [8]: > 100 µM (inactive) | GI50 [9]: > 100 µM (inactive) | GI50 [10]: > 100 µM (inactive) | GI50 [11]: > 100 µM (inactive) | GI50 [12]: > 100 µM (inactive) | GI50 [13]: > 100 µM (inactive) | GI50 [14]: > 100 µM (inactive) | GI50 [15]: > 100 µM (inactive) | GI50 [16]: > 100 µM (inactive)

O=C(c1cccs1)N(C(=S)N1CCN(c2ccccn2)CC1)C1CCCCC1
GI50 [1]: 76.4 µM (inactive) | GI50 [2]: 36.9 µM (inactive) | GI50 [3]: 33 µM (inactive) | GI50 [17]: 52 µM (inactive) | GI50 [4]: 19.5 µM (inactive) | GI50 [5]: 58.6 µM (inactive) | GI50 [6]: > 100 µM (inactive) | GI50 [7]: > 100 µM (inactive) | GI50 [8]: 22.4 µM (inactive) | GI50 [9]: 36.3 µM (inactive) | GI50 [11]: > 100 µM (inactive) | GI50 [12]: > 100 µM (inactive) | GI50 [13]: 43.7 µM (inactive) | GI50 [14]: 81.1 µM (inactive) | GI50 [15]: 44.4 µM (inactive) | GI50 [16]: > 100 µM (inactive)

Cc1cc(O)c2c(c1)OC1(C)CCC3C(C)(C)CCCC34COC2C14 (configuration not stated)
GI50 [1]: 14.4 µM (inactive) | GI50 [2]: 13.9 µM (inactive) | GI50 [3]: 0.141 µM (active) | GI50 [4]: 14 µM (inactive) | GI50 [6]: 15.5 µM (inactive) | GI50 [8]: 14.4 µM (inactive) | GI50 [9]: 13.3 µM (inactive) | GI50 [10]: 13.2 µM (inactive) | GI50 [11]: 16.7 µM (inactive) | GI50 [13]: 13.1 µM (inactive) | GI50 [14]: 20 µM (inactive) | GI50 [15]: 16.7 µM (inactive) | GI50 [16]: 13.6 µM (inactive)
